{
  "source": "patent US20140255432A1",
  "about": "“SILVESTROL, SILVESTROL ANALOGS AND USES THEREOF” (priority 2011, published 2014)",
  "key": {"[1]": {"system": "STAT1, STAT3, AKT and NF-κB p65", "assay": "Immunoblot of LMP-1 downstream pathways in LCL", "format": "cell-based, human", "method": "Cells were harvested and lysed as described (Alinari 2011). Following collection of whole cell lysates, equal amounts of protein were resolved by SDS-PAGE and transferred onto a PVDF membrane (Millipore, Billerica, Mass.). Membrane was probed overnight at 4° C. with β-actin, pSTAT1, pSTAT3, STAT1, STAT3, pAkt, Akt (Cell Signaling Technology, Danvers, Mass.), or LMP-1 (DakoCytomation, Carpinteria, Calif.). After incubation with HRP-conjugated secondary antibody (Cell Signaling Technology), protein was detected with SuperSignal West Pico Chemiluminescent Substrate (Pierce, Rockford, Ill.).\nThrough its cytoplasmic C-terminal-activating region 1 (CTAR1), LMP-1 constitutively activates multiple pro-survival signaling pathways including NF-κB, PI3K/AKT, and STATs 1 and 3 (Shair 2007; Gires 1999; Dawson 2003; Kung 2008; Kung 2011) similar to an external growth stimulus. Thus, LMP-1 directly and indirectly promotes tumor cell growth and survival through diverse mechanisms. To investigate the effects of silvestrol on these pathways, LCLs were incubated for 24, 72, and 120 hr with vehicle or 10 nM silvestrol, and cell extracts were analyzed by immunoblot. […] Using the same treatment conditions, a decrease in the levels of both total Akt and its activated, phosphorylated form was observed. […] Total levels of NF-κB proteins such as p50, p105, and IKBa were unchanged (left panel), as were Bcl2 family proteins such as Bcl2, Mel1, and Bax (right panel) (FIG. 36)."}, "lymphoma cell lines": {"system": "lymphoma cell lines", "assay": "IC50 against lymphoma cell lines", "format": "cell-based", "conditions": "Homo sapiens", "excerpt": "These include EBV^+ lymphoblastoid cell lines (LCL) derived from SCID mice engrafted with peripheral blood mononuclear cells (hu-PBL-SCID) from EBV-positive donors. (FIG. 1). This hu-PBL-SCID model is a spontaneous, preclinical model of EBV-driven lymphomagenesis that can be utilized to study the anti-tumor and immune surveillance activity of EBV-specific memory T cells. In vitro, the anti-proliferative effect of silvestrol against EBV+ LCLs (FIG. 2) is preceded by a loss of EBV latent membrane protein 1 (LMP1). In FIG. 2A, relative proliferation was determined. MTS assays were performed on three donors treated with silvestrol (2, 5, or 10 nM) or DMSO (control). The assays were performed on days 1, 3, and 5. In FIG. 2B, relative growth was determined. Viability assays were performed on cells from three donors treated with silvestrol (2, 5, or 10 nM) or DMSO (control). The assays were performed on days 1, 3, and 5. Viability was assessed by annexin/propidium iodide flow cytometry."}, "[2]": {"system": "EBV-positive lymphoblastoid cell lines (LCL)", "assay": "Apoptosis/viability by annexin/PI flow cytometry", "format": "cell-based, human", "conditions": "2-50 nM; 24, 72, 120 hr; p=0.006 averaged over doses and time points", "method": "(§1) Cells from irradiated or non-irradiated co-cultures were co-stained with LIVE/DEAD cell stain (Invitrogen, Grand Island, N.Y.) and hu-CD3-APC and either hu-CD4-PE, hu-CD-8-PE, hu-CD19-PE (BD Biosciences, San Diego, Calif.), or hu-CD56-PE (Beckman Coulter, Brea, Calif.). Live events were gathered by gating on cells negative for the LIVE/DEAD stain on an FC500 cytometer (Beckman Coulter). Cell viability was also measured by flow cytometry at 24, 72, and 120 hr using annexin-V-FITC and propidium iodide (PI) according to the manufacturer's instructions (BD Biosciences).\nThe direct anti-tumor activity of silvestrol in leukemia and lymphoma models has been document (Hwang 2004; Bordeleau 2008; Cencic 2009; Lucas 2009 Alinari 2011; Saradhi 2011) as well as silvestrol's increased cytotoxicity to malignant B cells compared to normal blood lymphocytes (Lucas 2009). However, activity of silvestrol has not previously been described in spontaneous EBV-transformed cell lines. Silvestrol's activity in fully transformed EBV-positive LCL derived from tumors of SCID mice engrafted with PBMC from EBV-seropositive donors was observed. Six of these EBV-LCL lines were plated in the presence of low concentrations of silvestrol (2-50 nM), and apoptosis (viability assessed by annexin/PI flow cytometry) (FIG. 2A) and proliferation (MTS assay) (FIG. 2B) were evaluated at 24, 72, and 120 hr. […]"}, "[3]": {"system": "immune effector subsets (CD3+/CD4+, CD3+/CD8+, CD3-/CD56+)", "assay": "Irradiated LCL / autologous PBMC co-cultures, flow cytometry", "format": "cell-based, human", "conditions": "14 days", "method": "Lymphoblastoid cell lines (LCL) were derived in vivo by engrafting severe combined immune-deficient (SCID) mice (Taconic, Hudson N.Y.) with human peripheral blood mononuclear cells (PBMC) from a healthy EBV-positive donor as described (Rowe 1991; Baiocchi 1994). Co-cultures (Cocx) were created by mixing 5×10^4 LCL (either non-irradiated or irradiated with 14000 rad) per well with equal numbers of autologous PBMC in 96-well plates. Cultures were grown in the presence of 10 U/mL IL-2 and were given a single dose of silvestrol and cultured for 10-14 days.\nas §1\nTo explore the immune modulatory activity of silvestrol in EBV-LPD, in vitro co-cultures (CoCx) were used. These cultures were created by lethally irradiating LCL lines and mixing them at a ratio of 1:1 with PBMC from the same healthy donor from which the LCL was derived. The PBMC are activated and expand in response to the antigenic stimuli from the EBV-infected LCL (Rowe 1991; Baiocchi 1994; Mosier 1995). CoCx created using three LCL and their respective autologous PBMC were incubated in the presence of 10 U/mL IL-2 and treated with 0 (vehicle only), 2, 5, or 10 nM silvestrol for 14 days. Flow cytometric analysis was conducted. Cells were gated on Live events were gathered by gating on cells negative for the LIVE/DEAD stain. Data are expressed as percentage of viable population, relative to the vehicle CoCx condition, for total cells, CD3^+/CD4^+, CD3^+/C8^+, and CD3^−CD56^+ cells. Results shown are the averages from three individual CoCx. […] As the irradiated LCL were absent by this time, silvestrol allowed for expansion of the normal effector population following LCL exposure."}},
  "data": [
    {"smiles": "COC(=O)[C@H]1[C@@H](O)[C@@]2(O)c3c(OC)cc(O[C@@H]4O[C@@H]([C@H](O)CO)CO[C@H]4OC)cc3O[C@@]2(c2ccc(OC)cc2)[C@@H]1c1ccccc1", "note": "[silvestrol]", "values": [
      {"measurement": "phosphorylated (activated) STAT1 level", "setting": "[1]; 10 nM, 24, 72, 120 hr", "result": "decreased"},
      {"measurement": "phosphorylated (activated) STAT3 level", "setting": "[1]; 10 nM, 24, 72, 120 hr", "result": "decreased"},
      {"measurement": "phosphorylated Akt level", "setting": "[1]; 10 nM, 24, 72, 120 hr", "result": "a decrease"},
      {"measurement": "total Akt level", "setting": "[1]; 10 nM, 24, 72, 120 hr", "result": "a decrease"},
      {"measurement": "total STAT1 level", "setting": "[1]; 10 nM, 24, 72, 120 hr", "result": "remained unchanged"},
      {"measurement": "total STAT3 level", "setting": "[1]; 10 nM, 24, 72, 120 hr", "result": "remained unchanged"},
      {"measurement": "total p65 levels", "setting": "[1]; 10 nM, 24, 72, 120 hr", "result": "relatively unchanged"},
      {"measurement": "total levels of NF-κB proteins p50, p105, IKBa", "setting": "[1]; FIG. 36 left panel", "result": "unchanged"},
      {"measurement": "Bcl2 family proteins Bcl2, Mcl1, Bax", "setting": "[1]; FIG. 36 right panel", "result": "unchanged"},
      {"measurement": "IC50", "setting": "lymphoma cell lines", "result": "< 10", "unit": "nM"},
      {"measurement": "apoptosis vs. untreated control", "setting": "[2]", "result": "Moderate but significant activity"},
      {"measurement": "total number of cells expanded in CoCx", "setting": "[3]; 10 nM, 10 U/mL IL-2", "result": "lower than in the vehicle controls"},
      {"measurement": "CD4+ T helper cell population relative to untreated CoCx", "setting": "[3]; 2, 5, 10 nM", "result": "mild decrease"},
      {"measurement": "CD8+ cytotoxic T cell population relative to untreated CoCx", "setting": "[3]; 2, 5, 10 nM", "result": "mild decrease"},
      {"measurement": "CD56+ natural killer cell population relative to untreated CoCx", "setting": "[3]; 2, 5, 10 nM", "result": "relative increase"}
    ]}
  ]
}
